# Data taken from patent EP4813993A1, “COMPOUND, PREPARATION METHOD THEREFOR, AND USE THEREOF” (Sichuan Kelun Pharmaceutical Research Institute Co., Ltd., priority 2023, dated 2025).
# Experiments:
# [1] = Tissue distribution study (dorsal root ganglia) in ICR mice; type: in vivo; conditions: male, mouse, oral administration 20 mg/kg
# incision pain model [2] = assay: Incision pain model in ICR mice, Von Frey test; type: in vivo; conditions: Mean + SEM, n = 10; for PWT 50% value (g) Post-surgery, Preadministration: baseline before administration; for PWT 50% value (g) Pre-surgery: baseline before surgery; for PWT 50% value (g) 0.5 h: 0.5 h after administration; for PWT 50% value (g) 2 h: 2 h after administration; for PWT 50% value (g) 4 h: 4 h after administration
# Method: Experimental Example 6: Pharmacodynamic effect study of compounds in incision pain model in ICR mice Experimental animals: ICR mice, male, 28-35 g.
# (§1) Compound preparation: 5% (final preparation volume) of DMSO was added to dissolve the test compound, and then 10% (final preparation volume) of Cremophor EL and 85% Saline were sequentially added.
# A plantar incision pain model was established in mice via surgery before the administration and test. Mice were placed in an anesthesia induction chamber and given 3%-4% isoflurane for anesthesia induction. After the anesthesia induction, a breathing mask was applied, and the isoflurane concentration was adjusted to 1%-2% to prevent the mice from suffering pain during the surgery. Each mouse was placed in a supine position, and the surgical site was disinfected with alcohol and iodophor. Under sterile conditions, a 0.5 cm longitudinal incision was made on the left hind paw surface, 0.2 cm away from the heel, extending toward the toes. The skin and fascia were incised; the plantar muscle was separated, slightly lifted, and longitudinally incised. The skin was then sutured with 5-0 sutures and disinfected.
# (§2) 2. Administration and test
# The Von Frey test was performed once before the surgery. On the second day after animal modeling, the test was repeated, and animals meeting the baseline requirements were selected for enrollment. The animals were randomly grouped based on the 50% PWT values, with 10 animals per group. Administration was performed under a double-blind test protocol. The 50% PWT of the animals was measured separately before administration (baseline) and at 0.5 h, 2 h, and 4 h after administration, and a single dose was administered. The model control group was given normal saline, while the compound groups were given the compounds according to the administration doses in the table below.
# [3] = tested on: spinal nerve ligation model (SNL); assay: Rat spinal nerve ligation model (SNL), Von Frey test; type: in vivo, SD rats; conditions: for PWT 50% value (g) Post-surgery, Preadministration / PWT 50% value (g) Pre-surgery / PWT 50% value (g) Time 0.5 h / PWT 50% value (g) Time 2 h / PWT 50% value (g) Time 4 h / PWT 50% value (g) Time 6 h / PWT 50% value (g) Time 8 h / PWT 50% value (g) AUC0-8h: SD rats SNL, Mean + SEM, n = 10; for PWT 50% value (g) Post-surgery, Preadministration: baseline before administration; for PWT 50% value (g) Pre-surgery: baseline before surgery; for PWT 50% value (g) Time 0.5 h: 0.5 h after administration; for PWT 50% value (g) Time 2 h: 2 h after administration; for PWT 50% value (g) Time 4 h: 4 h after administration; for PWT 50% value (g) Time 6 h: 6 h after administration; for PWT 50% value (g) Time 8 h: 8 h after administration
# Method: Experimental Example 8: Pharmacodynamic effect study of compounds in rat spinal nerve ligation model (SNL) Experimental animals: SD rats, male, 180-220 g.
# as §1
# SD rats were anesthetized with isoflurane via inhalation. Each rat was placed in a prone position, and the hair at the surgical site was shaved locally. The surgical site was disinfected with alcohol and iodophor. Under sterile conditions, a 3-4 cm longitudinal incision was made at the level of the lower lumbar/upper sacrum to expose the left paravertebral muscles. Using small sharp-blunt scissors, the paravertebral muscles were bluntly dissected, and the transverse process of L6 was excised. The L4 and L5 spinal nerves were isolated and exposed, and the L5 spinal nerve was ligated with 6-0 silk sutures. The surgical wound was treated with ceftriaxone for anti-inflammation and infection prevention. The muscles and skin were sutured layer by layer, followed by disinfection with iodophor. After the surgery, the animals were placed on a warm electric blanket for heat preservation and returned to the cages for rearing after complete recovery from anesthesia. Postoperative behavioral observations were performed.
# as §2
# The Von Frey test was performed once before the surgery. On the 5th and 6th days after surgery, paw-lifting training was performed once each day. Animals with a baseline of 2-5 g were selected for enrollment and grouped based on the 50% PWT values, with 10 animals per group. The next day, a single dose was administered in a blinded manner. The 50% PWT of the animals was measured separately before administration (baseline) and at 0.5 h, 2 h, 4 h, 6 h, or 8 h after administration. The model control group was given normal saline, while the compound groups were given the compounds according to the administration doses in the table below.
# incision pain model [4] = assay: Incision pain model in ICR mice, Von Frey test; type: in vivo; conditions: 50 mg/kg single dose, Mean + SEM, n = 10
smiles,measurement,setting,value
"COc1c(C2CC(C)(C(F)(F)F)SC2C(=O)Nc2ccnc(C(N)=O)c2)ccc(F)c1F (single isomer, unassigned) [Compound 139-A, 4-(3-(3,4-difluoro-2-methoxyphenyl)-5-methyl-5-(trifluoromethyl)tetrahydrothiophene-2-carboxamido)picolinamide]",concentration at 0.25 h,[1]; Time 0.25 h,1920 ng/g
same,concentration at 2 h,[1]; Time 2 h,9380 ng/g
same,concentration at 12 h,[1]; Time 12 h,2600 ng/g
same,"PWT 50% value (g) Post-surgery, Preadministration",incision pain model [2]; 50 mg/kg group,0.22 ± 0.03 g
same,PWT 50% value (g) Pre-surgery,incision pain model [2]; 50 mg/kg group,1.39 ± 0.31 g
same,PWT 50% value (g) 0.5 h,incision pain model [2]; 50 mg/kg single dose,0.74 ± 0.3 g
same,PWT 50% value (g) 2 h,incision pain model [2]; 50 mg/kg single dose,1.05 ± 0.38 g
same,PWT 50% value (g) 4 h,incision pain model [2]; 50 mg/kg single dose,0.74 ± 0.29 g
same,"PWT 50% value (g) Post-surgery, Preadministration",incision pain model [2]; 125 mg/kg group,0.22 ± 0.02 g
same,PWT 50% value (g) Pre-surgery,incision pain model [2]; 125 mg/kg group,1.25 ± 0.31 g
same,PWT 50% value (g) 0.5 h,incision pain model [2]; 125 mg/kg single dose,0.82 ± 0.33 g
same,PWT 50% value (g) 2 h,incision pain model [2]; 125 mg/kg single dose,1.09 ± 0.32 g
same,PWT 50% value (g) 4 h,incision pain model [2]; 125 mg/kg single dose,0.87 ± 0.16 g
same,PWT 50% value (g) AUC0-8h,incision pain model [2]; 125 mg/kg single dose,6.08 ± 1.2 g·h
same,"PWT 50% value (g) Post-surgery, Preadministration",[3]; 50 mg/kg group,2.68 ± 1.05 g
same,PWT 50% value (g) Pre-surgery,[3]; 50 mg/kg group,14.94 ± 2.38 g
same,PWT 50% value (g) Time 0.5 h,[3]; 50 mg/kg single dose,5.78 ± 2.76 g
same,PWT 50% value (g) Time 2 h,[3]; 50 mg/kg single dose,8.76 ± 2.47 g
same,PWT 50% value (g) Time 4 h,[3]; 50 mg/kg single dose,7.73 ± 4.32 g
same,PWT 50% value (g) Time 6 h,[3]; 50 mg/kg single dose,4.9 ± 1.61 g
same,PWT 50% value (g) Time 8 h,[3]; 50 mg/kg single dose,3.57 ± 1.44 g
same,PWT 50% value (g) AUC0-8h,[3]; 50 mg/kg single dose,50.59 ± 15.71 g
same,"PWT 50% value (g) Post-surgery, Preadministration",[3]; 125 mg/kg group,2.68 ± 1 g
same,PWT 50% value (g) Pre-surgery,[3]; 125 mg/kg group,13.83 ± 3.18 g
same,PWT 50% value (g) Time 0.5 h,[3]; 125 mg/kg single dose,6.96 ± 3.34 g
same,PWT 50% value (g) Time 2 h,[3]; 125 mg/kg single dose,9.61 ± 3.73 g
same,PWT 50% value (g) Time 4 h,[3]; 125 mg/kg single dose,7.26 ± 3.19 g
same,PWT 50% value (g) Time 6 h,[3]; 125 mg/kg single dose,5.01 ± 1.63 g
same,PWT 50% value (g) Time 8 h,[3]; 125 mg/kg single dose,3.88 ± 1.67 g
same,PWT 50% value (g) AUC0-8h,[3]; 125 mg/kg single dose,52.87 ± 15.06 g
same,dose-effect relationship,[3]; rat SNL model,relatively good dose-effect relationship
same,differences compared with the model group,"[3]; rat SNL model, all time points",significant differences compared with the model group at all time points
same,PWT 50% value (g) AUC0-8h,incision pain model [4],5.45 ± 1.62 g·h
